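Dose response: 5 concentrations. Exposure: 48 h. Format: 96-well plates. Endpoint: linear interpolation; highest concentration if not reached. GI50 is the concentration that inhibits growth by half.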 Active and inactive are the calls of the source. No stated cut-off is given here; in the data, active = GI50 up to about 1.1 µM and inactive = higher.
Columns and labels:
Assay in all cases: growth of human tumour cells (NCI), 48 h
786-0 = test system: 786-0
A498 = test system: A498
A549 = test system: A549
ACHN = test system: ACHN
BT-549 = test system: BT-549
CAKI-1 = test system: CAKI-1
COLO 205 = test system: COLO 205
DU-145 = test system: DU-145
EKVX = test system: EKVX
HCC 2998 = test system: HCC 2998
HCT-116 = test system: HCT-116
HCT-15 = test system: HCT-15
HOP-62 = test system: HOP-62
HOP-92 = test system: HOP-92
HT-29 = test system: HT-29
IGROV-1 = test system: IGROV-1
K562 = test system: K562
KM12 = test system: KM12
M14 = test system: M14
MCF7 = test system: MCF7
MDA-MB-231 = test system: MDA-MB-231
MDA-MB-435 = test system: MDA-MB-435
MDA-N = test system: MDA-N
MOLT-4 = test system: MOLT-4
Malme-3M = test system: Malme-3M
NCI-H226 = test system: NCI-H226
NCI-H23 = test system: NCI-H23
NCI-H460 = test system: NCI-H460
NCI-H522 = test system: NCI-H522
NCI/ADR-RES = test system: NCI/ADR-RES
OVCAR-3 = test system: OVCAR-3
OVCAR-4 = test system: OVCAR-4
OVCAR-5 = test system: OVCAR-5
PC-3 = test system: PC-3
RPMI-8226 = test system: RPMI-8226
RXF 393 = test system: RXF 393
SF-268 = test system: SF-268
SF-295 = test system: SF-295
SK-MEL-28 = test system: SK-MEL-28
SK-MEL-2 = test system: SK-MEL-2
SK-OV-3 = test system: SK-OV-3
SN12C = test system: SN12C
SNB-19 = test system: SNB-19
SNB-75 = test system: SNB-75
SW-620 = test system: SW-620
TK-10 = test system: TK-10
U-251 = test system: U-251
UACC-257 = test system: UACC-257
UACC-62 = test system: UACC-62
UO-31 = test system: UO-31
CCRF-CEM = test system: CCRF-CEM
Hs-578T = test system: Hs-578T
LOX IMVI = test system: LOX IMVI
OVCAR-8 = test system: OVCAR-8
SF-539 = test system: SF-539
SK-MEL-5 = test system: SK-MEL-5
SR = test system: SR
HL-60 = test system: HL-60

## NCCC(=O)N[C@@H](Cc1cc(O)c(O)c(SCC(NC(=O)CC[C@H](N)C(=O)O)C(=O)NCC(=O)O)c1)C(=O)O (stereo not given in full)
786-0
  GI50: > 50 µM (inactive)
A498
  GI50: > 50 µM (inactive)
A549
  GI50: > 50 µM (inactive)
ACHN
  GI50: > 50 µM (inactive)
BT-549
  GI50: > 50 µM (inactive)
CAKI-1
  GI50: > 50 µM (inactive)
COLO 205
  GI50: > 50 µM (inactive)
DU-145
  GI50: > 50 µM (inactive)
EKVX
  GI50: > 50 µM (inactive)
HCC 2998
  GI50: > 50 µM (inactive)
HCT-116
  GI50: > 50 µM (inactive)
HCT-15
  GI50: > 50 µM
HOP-62
  GI50: 34.4 µM (inactive)
HOP-92
  GI50: > 50 µM (inactive)
HT-29
  GI50: > 50 µM (inactive)
IGROV-1
  GI50: > 50 µM (inactive)
K562
  GI50: > 50 µM (inactive)
KM12
  GI50: > 50 µM (inactive)
M14
  GI50: > 50 µM (inactive)
MCF7
  GI50: > 50 µM (inactive)
MDA-MB-231
  GI50: > 50 µM (inactive)
MDA-MB-435
  GI50: > 50 µM (inactive)
MDA-N
  GI50: > 50 µM (inactive)
MOLT-4
  GI50: > 50 µM (inactive)
Malme-3M
  GI50: > 50 µM (inactive)
NCI-H226
  GI50: > 50 µM (inactive)
NCI-H23
  GI50: > 50 µM (inactive)
NCI-H460
  GI50: > 50 µM (inactive)
NCI-H522
  GI50: > 50 µM (inactive)
NCI/ADR-RES
  GI50: > 50 µM (inactive)
OVCAR-3
  GI50: > 50 µM (inactive)
OVCAR-4
  GI50: > 50 µM (inactive)
OVCAR-5
  GI50: > 50 µM (inactive)
PC-3
  GI50: > 50 µM (inactive)
RPMI-8226
  GI50: > 50 µM (inactive)
RXF 393
  GI50: > 50 µM (inactive)
SF-268
  GI50: > 50 µM (inactive)
SF-295
  GI50: > 50 µM (inactive)
SK-MEL-28
  GI50: > 50 µM (inactive)
SK-MEL-2
  GI50: > 50 µM (inactive)
SK-OV-3
  GI50: > 50 µM (inactive)
SN12C
  GI50: > 50 µM (inactive)
SNB-19
  GI50: > 50 µM (inactive)
SNB-75
  GI50: > 50 µM (inactive)
SW-620
  GI50: > 50 µM (inactive)
TK-10
  GI50: > 50 µM (inactive)
U-251
  GI50: > 50 µM (inactive)
UACC-257
  GI50: > 50 µM (inactive)
UACC-62
  GI50: > 50 µM (inactive)
UO-31
  GI50: > 50 µM (inactive)

## Cc1ccc(C(=O)CCC2C(=O)CC(C)(C)CC2=O)cc1
786-0
  GI50: > 100 µM (inactive)
A549
  GI50: > 100 µM (inactive)
ACHN
  GI50: > 100 µM (inactive)
BT-549
  GI50: > 100 µM (inactive)
CAKI-1
  GI50: 17.5 µM (inactive)
CCRF-CEM
  GI50: 24.5 µM (inactive)
COLO 205
  GI50: > 100 µM (inactive)
DU-145
  GI50: > 100 µM (inactive)
EKVX
  GI50: > 100 µM (inactive)
HCC 2998
  GI50: > 100 µM (inactive)
HCT-116
  GI50: > 100 µM (inactive)
HCT-15
  GI50: > 100 µM
HOP-62
  GI50: > 100 µM (inactive)
HOP-92
  GI50: 44.9 µM (inactive)
HT-29
  GI50: > 100 µM (inactive)
Hs-578T
  GI50: > 100 µM (inactive)
IGROV-1
  GI50: > 100 µM (inactive)
KM12
  GI50: > 100 µM (inactive)
LOX IMVI
  GI50: > 100 µM (inactive)
M14
  GI50: > 100 µM (inactive)
MCF7
  GI50: 53 µM (inactive)
MDA-MB-231
  GI50: > 100 µM (inactive)
MDA-MB-435
  GI50: > 100 µM (inactive)
MDA-N
  GI50: > 100 µM (inactive)
MOLT-4
  GI50: > 100 µM (inactive)
NCI-H226
  GI50: > 100 µM (inactive)
NCI-H23
  GI50: > 100 µM (inactive)
NCI-H460
  GI50: > 100 µM (inactive)
NCI-H522
  GI50: 16.6 µM (inactive)
NCI/ADR-RES
  GI50: > 100 µM (inactive)
OVCAR-3
  GI50: > 100 µM (inactive)
OVCAR-4
  GI50: > 100 µM (inactive)
OVCAR-5
  GI50: > 100 µM (inactive)
OVCAR-8
  GI50: > 100 µM (inactive)
PC-3
  GI50: > 100 µM (inactive)
RXF 393
  GI50: > 100 µM (inactive)
SF-268
  GI50: > 100 µM (inactive)
SF-295
  GI50: > 100 µM (inactive)
SF-539
  GI50: > 100 µM (inactive)
SK-MEL-28
  GI50: > 100 µM (inactive)
SK-MEL-2
  GI50: > 100 µM (inactive)
SK-MEL-5
  GI50: > 100 µM (inactive)
SK-OV-3
  GI50: > 100 µM (inactive)
SN12C
  GI50: > 100 µM (inactive)
SNB-19
  GI50: > 100 µM (inactive)
SNB-75
  GI50: > 100 µM (inactive)
SR
  GI50: 15.7 µM (inactive)
SW-620
  GI50: > 100 µM (inactive)
TK-10
  GI50: > 100 µM (inactive)
U-251
  GI50: > 100 µM (inactive)
UACC-257
  GI50: > 100 µM (inactive)
UACC-62
  GI50: > 100 µM (inactive)
UO-31
  GI50: > 100 µM (inactive)

## COc1cc(S(=O)(=O)Nc2ccc(-c3csc(N4C(=O)CSC4c4ccccc4O)n3)cc2)ccc1Cl (stereo not given)
786-0
  GI50: 69.2 µM (inactive)
A549
  GI50: 61.8 µM (inactive)
ACHN
  GI50: 32.4 µM (inactive)
BT-549
  GI50: 31 µM (inactive)
CAKI-1
  GI50: > 100 µM (inactive)
CCRF-CEM
  GI50: 23.3 µM (inactive)
COLO 205
  GI50: 24.5 µM (inactive)
DU-145
  GI50: 35.4 µM (inactive)
EKVX
  GI50: 25.4 µM (inactive)
HCC 2998
  GI50: 21.6 µM (inactive)
HCT-116
  GI50: 32.8 µM (inactive)
HCT-15
  GI50: 58.5 µM
HL-60
  GI50: 22.2 µM (inactive)
HOP-62
  GI50: 85.7 µM (inactive)
HOP-92
  GI50: 29.2 µM (inactive)
HT-29
  GI50: 92 µM (inactive)
IGROV-1
  GI50: 46.3 µM (inactive)
K562
  GI50: 34.8 µM (inactive)
KM12
  GI50: 38.4 µM (inactive)
LOX IMVI
  GI50: 34.4 µM (inactive)
M14
  GI50: 64.3 µM (inactive)
MCF7
  GI50: 30.9 µM (inactive)
MDA-MB-435
  GI50: 40.4 µM (inactive)
MDA-N
  GI50: 32.9 µM (inactive)
MOLT-4
  GI50: 88.3 µM (inactive)
Malme-3M
  GI50: 42.5 µM (inactive)
NCI-H226
  GI50: 32.9 µM (inactive)
NCI-H23
  GI50: 31.5 µM (inactive)
NCI-H460
  GI50: 21.4 µM (inactive)
NCI-H522
  GI50: 24.3 µM (inactive)
NCI/ADR-RES
  GI50: > 100 µM (inactive)
OVCAR-3
  GI50: 84.7 µM (inactive)
OVCAR-4
  GI50: 52.2 µM (inactive)
OVCAR-5
  GI50: 79.6 µM (inactive)
OVCAR-8
  GI50: 55.1 µM (inactive)
PC-3
  GI50: 38.1 µM (inactive)
RPMI-8226
  GI50: 60.5 µM (inactive)
SF-268
  GI50: 44.8 µM (inactive)
SF-295
  GI50: 72.6 µM (inactive)
SF-539
  GI50: 34.8 µM (inactive)
SK-MEL-28
  GI50: 24.5 µM (inactive)
SK-MEL-2
  GI50: 44.6 µM (inactive)
SK-MEL-5
  GI50: 58.7 µM (inactive)
SK-OV-3
  GI50: > 100 µM (inactive)
SN12C
  GI50: 92 µM (inactive)
SNB-19
  GI50: 57.9 µM (inactive)
SNB-75
  GI50: 31.9 µM (inactive)
SR
  GI50: 54.8 µM (inactive)
SW-620
  GI50: 35.2 µM (inactive)
UACC-257
  GI50: 27.7 µM (inactive)
UACC-62
  GI50: 29.4 µM (inactive)
UO-31
  GI50: 51.3 µM (inactive)
